Here are results for 31 compounds from US11685729B2, “C5a receptor modulators” (IDORSIA PHARMACEUTICALS LTD., priority 2018, dated 2023).

Structures are written as SMILES.

The target in one assay is C5AR1 (Homo sapiens (Human), UniProt P21730). Put plainly: In vitro assay: PathHunter beta-arrestin antagonist assay in CHO-K1 C5AR1 beta-arrestin cell line, stimulated with C5a agonist.
Chain of C5AR1 (P21730 whole entry): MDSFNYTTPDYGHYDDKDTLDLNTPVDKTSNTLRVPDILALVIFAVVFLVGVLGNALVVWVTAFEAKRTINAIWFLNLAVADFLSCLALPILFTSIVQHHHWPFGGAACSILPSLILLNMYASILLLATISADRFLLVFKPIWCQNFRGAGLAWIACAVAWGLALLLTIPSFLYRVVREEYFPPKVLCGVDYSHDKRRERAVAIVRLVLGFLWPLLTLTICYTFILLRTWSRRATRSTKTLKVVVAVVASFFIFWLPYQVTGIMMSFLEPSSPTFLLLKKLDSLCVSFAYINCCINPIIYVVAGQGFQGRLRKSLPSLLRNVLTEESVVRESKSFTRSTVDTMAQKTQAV
Settings: not given
In turn, `Cc1cccc(F)c1N1CCC(N2C(=O)N(Cc3ccccc3C(F)(F)F)c3ccccc3C2C)CC1` (single isomer, unassigned) [Example 71, (S)- or (R)-3-[1-(2-Fluoro-6-methyl-phenyl)-piperidin-4-yl]-4-methyl-1-(2-trifluoromethyl-benzyl)-3,4-dihydro-1H-quinazolin-2-one] came in with an IC50 of 59 nM.

The same assay, now with this note: read-out: C5aR IC50; CHO-K1 C5AR1 beta-arrestin cell line; 1-10 nM C5a agonist; geometric mean values.
Take `COC(=O)C(c1ccccc1OC)N1C(=O)N(C2CCN(c3c(C)cccc3F)CC2)Cc2ccccc21` (stereo not shown) [Example 49, {3-[1-(2-Fluoro-6-methyl-phenyl)-piperidin-4-yl]-2-oxo-3,4-dihydro-2H-quinazolin-1-yl}-(2-methoxy-phenyl)-acetic acid methyl ester]: the half-maximal inhibitory concentration (IC50) came out at 102 nM.
Same read-out and setting: with `Cc1cccc(F)c1N1CCC(N2Cc3ccccc3N(Cc3ncccc3OC(C)C)C2=O)CC1` [Example 60, 3-[1-(2-Fluoro-6-methyl-phenyl)-piperidin-4-yl]-1-(3-isopropoxy-pyridin-2-ylmethyl)-3,4-dihydro-1H-quinazolin-2-one] the figure was 28 nM.
On to `Cc1ccnc(C)c1N1CC[C@@H](N2Cc3ccccc3N(Cc3ccccc3C(F)(F)F)C2=O)C1` [Example 32, 3-[(R)-1-(2,4-Dimethyl-pyridin-3-yl)-pyrrolidin-3-yl]-1-(2-trifluoromethyl-benzyl)-3,4-dihydro-1H-quinazolin-2-one], for which the 50% inhibitory concentration (IC50) was determined as 280 nM.
On the same count and under the same terms, the result for `Cc1cccc(F)c1N1CCC(N2Cc3ccccc3N(C(C)c3ccccc3C(F)(F)F)C2=O)CC1` (stereo not shown) [Example 45, 3-[1-(2-Fluoro-6-methyl-phenyl)-piperidin-4-yl]-1-[1-(2-trifluoromethyl-phenyl)-ethyl]-3,4-dihydro-1H-quinazolin-2-one] reads 191 nM; that for `COc1cccc(F)c1N1CCC(N2Cc3cccc(OC)c3N(Cc3ccccc3C(F)(F)F)C2=O)CC1` [Example 5, 3-[1-(2-Fluoro-6-methoxy-phenyl)-piperidin-4-yl]-8-methoxy-1-(2-trifluoromethyl-benzyl)-3,4-dihydro-1H-quinazolin-2-one], 300 nM.
For the compound `Cc1ccnc(F)c1N1CCC(N2Cc3ccccc3N(Cc3ccccc3C(F)(F)F)C2=O)CC1` [Example 30, 3-(2′-Fluoro-4′-methyl-3,4,5,6-tetrahydro-2H-[1,3′]bipyridinyl-4-yl)-1-(2-trifluoromethyl-benzyl)-3,4-dihydro-1H-quinazolin-2-one], the IC50 worked out at 45 nM.
The same measure, in the same setting: the result for `COc1cccc(OC)c1N1CC[C@@H](N2Cc3cccc(OC)c3N(Cc3ccccc3C(F)(F)F)C2=O)C1` [Example 24, 3-[(R)-1-(2,6-Dimethoxy-phenyl)-pyrrolidin-3-yl]-8-methoxy-1-(2-trifluoromethyl-benzyl)-3,4-dihydro-1H-quinazolin-2-one] reads 383 nM.
For the compound `COc1cccc(F)c1N1CCC(N2Cc3ccccc3N(Cc3ccccc3C(F)(F)F)C2=O)CC1` [Example 7, 3-[1-(2-Fluoro-6-methoxy-phenyl)-piperidin-4-yl]-1-(2-trifluoromethyl-benzyl)-3,4-dihydro-1H-quinazolin-2-one], the 50% inhibitory concentration (IC50) stood at 58 nM.
Same read-out and setting: the result for `Cc1cccc(F)c1N1CCC(N2Cc3ccccc3N(Cc3cnccc3C(C)C)C2=O)CC1` [Example 61, 3-[1-(2-Fluoro-6-methyl-phenyl)-piperidin-4-yl]-1-(4-isopropyl-pyridin-3-ylmethyl)-3,4-dihydro-1H-quinazolin-2-one] reads 36 nM; that for `COc1ccccc1N1CCC(N2Cc3ccccc3N(Cc3ccccc3C(F)(F)F)C2=O)CC1` [Example 6, 3-[1-(2-Methoxy-phenyl)-piperidin-4-yl]-1-(2-trifluoromethyl-benzyl)-3,4-dihydro-1H-quinazolin-2-one], 245 nM; that for `Cc1cccc(F)c1N1CCC(N2Cc3ccccc3N(Cc3cnccc3C(F)(F)F)C2=O)CC1` [Example 67, 3-[1-(2-Fluoro-6-methyl-phenyl)-piperidin-4-yl]-1-(4-trifluoromethyl-pyridin-3-ylmethyl)-3,4-dihydro-1H-quinazolin-2-one], 46 nM.
The same measure, in the same setting: with `Cc1cccc(F)c1N1CCC(N2Cc3ccccc3N(Cc3ncccc3C(F)(F)F)C2=O)CC1` [Example 69, 3-[1-(2-Fluoro-6-methyl-phenyl)-piperidin-4-yl]-1-(3-trifluoromethyl-pyridin-2-ylmethyl)-3,4-dihydro-1H-quinazolin-2-one] the figure was 13 nM.
Still for that read-out and setting: with `Cc1cccc(F)c1N1CCC(N2Cc3ccccc3N(Cc3cccnc3C(F)(F)F)C2=O)CC1` [Example 65, 3-[1-(2-Fluoro-6-methyl-phenyl)-piperidin-4-yl]-1-(2-trifluoromethyl-pyridin-3-ylmethyl)-3,4-dihydro-1H-quinazolin-2-one] the figure was 67 nM; with `COc1ccccc1N1CC[C@@H](N2Cc3cccc(OC)c3N(Cc3ccccc3C(F)(F)F)C2=O)C1` [Example 10, 8-Methoxy-3-[(R)-1-(2-methoxy-phenyl)-pyrrolidin-3-yl]-1-(2-trifluoromethyl-benzyl)-3,4-dihydro-1H-quinazolin-2-one], 1870 nM.
Regarding `COc1cccc(F)c1N1CC[C@H](N2Cc3ccccc3N(Cc3ccccc3C(F)(F)F)C2=O)C1` [Example 17, 3-[(S)-1-(2-Fluoro-6-methoxy-phenyl)-pyrrolidin-3-yl]-1-(2-trifluoromethyl-benzyl)-3,4-dihydro-1H-quinazolin-2-one], the IC50 turned out to be 437 nM.
The same measure, in the same setting: with `Cc1cccc(F)c1N1CCC(N2Cc3ccccc3N(Cc3ccccc3OCC#N)C2=O)CC1` [Example 55, (2-{3-[1-(2-Fluoro-6-methyl-phenyl)-piperidin-4-yl]-2-oxo-3,4-dihydro-2H-quinazolin-1-ylmethyl}-phenoxy)-acetonitrile] the figure was 512 nM.
On the same count and under the same terms, with `Cc1cccc(F)c1N1CCC(N2Cc3ccccc3N(Cc3ccccc3OC(C)C)C2=O)CC1` [Example 44, 3-[1-(2-Fluoro-6-methyl-phenyl)-piperidin-4-yl]-1-(2-isopropoxy-benzyl)-3,4-dihydro-1H-quinazolin-2-one] the figure was 33 nM; with `Cc1cccc(F)c1N1CCC(N2Cc3ccccc3N(Cc3ccccc3OC3CC3)C2=O)CC1` [Example 68, 1-(2-Cyclopropoxy-benzyl)-3-[1-(2-fluoro-6-methyl-phenyl)-piperidin-4-yl]-3,4-dihydro-1H-quinazolin-2-one], 66 nM.
Same read-out and setting: with `Cc1cccc(F)c1N1CCC(N2Cc3ccccc3N(Cc3ccccc3OC3COC3)C2=O)CC1` [Example 51, 3-[1-(2-Fluoro-6-methyl-phenyl)-piperidin-4-yl]-1-[2-(oxetan-3-yloxy)-benzyl]-3,4-dihydro-1H-quinazolin-2-one] the figure was 113 nM.
`Cc1ccnc(F)c1N1CC[C@@H](N2Cc3ccccc3N(Cc3ccccc3C(F)(F)F)C2=O)C1` [Example 33, 3-[(R)-1-(2-Fluoro-4-methyl-pyridin-3-yl)-pyrrolidin-3-yl]-1-(2-trifluoromethyl-benzyl)-3,4-dihydro-1H-quinazolin-2-one]: the IC50 came out at 43 nM.
The same measure, in the same setting: the result for `COc1nccnc1CN1C(=O)N(C2CCN(c3c(C)cccc3F)CC2)Cc2ccccc21` [Example 43, 3-[1-(2-Fluoro-6-methyl-phenyl)-piperidin-4-yl]-1-(3-methoxy-pyrazin-2-ylmethyl)-3,4-dihydro-1H-quinazolin-2-one] reads 299 nM; that for `COc1ccccc1N1CCC(N2Cc3cccc(OC)c3N(Cc3ccccc3C(F)(F)F)C2=O)CC1` [Example 4, 8-Methoxy-3-[1-(2-methoxy-phenyl)-piperidin-4-yl]-1-(2-trifluoromethyl-benzyl)-3,4-dihydro-1H-quinazolin-2-one], 944 nM.
Same read-out and setting: with `COc1ccccc1CN1C(=O)N([C@@H]2CCN(c3c(C)cccc3C)C2)Cc2ccccc21` [Example 34, 3-[(R)-1-(2,6-Dimethyl-phenyl)-pyrrolidin-3-yl]-1-(2-methoxy-benzyl)-3,4-dihydro-1H-quinazolin-2-one] the figure was 116 nM.
Still for that read-out and setting: the result for `COc1cccc(C)c1N1CCC(N2Cc3ccccc3N(Cc3ccccc3C(F)(F)F)C2=O)CC1` [Example 23, 3-[1-(2-Methoxy-6-methyl-phenyl)-piperidin-4-yl]-1-(2-trifluoromethyl-benzyl)-3,4-dihydro-1H-quinazolin-2-one] reads 32 nM; that for `COc1cccc(F)c1N1CC[C@@H](N2Cc3cccc(OC)c3N(Cc3ccccc3C(F)(F)F)C2=O)C1` [Example 11, 3-[(R)-1-(2-Fluoro-6-methoxy-phenyl)-pyrrolidin-3-yl]-8-methoxy-1-(2-trifluoromethyl-benzyl)-3,4-dihydro-1H-quinazolin-2-one], 219 nM; that for `Cc1cccc(F)c1N1CCC(N2Cc3ccccc3N(Cc3nccnc3OC(C)C)C2=O)CC1` [Example 59, 3-[1-(2-Fluoro-6-methyl-phenyl)-piperidin-4-yl]-1-(3-isopropoxy-pyrazin-2-ylmethyl)-3,4-dihydro-1H-quinazolin-2-one], 38 nM.
Take `Cc1cccc(Cl)c1N1CCC(N2Cc3ccccc3N(Cc3ccccc3C(F)(F)F)C2=O)CC1` [Example 79, 3-[1-(2-Chloro-6-methyl-phenyl)-piperidin-4-yl]-1-(2-trifluoromethyl-benzyl)-3,4-dihydro-1H-quinazolin-2-one]: the concentration for half-maximal inhibition (IC50) amounted to 57 nM.
The same measure, in the same setting: with `O=C1N(Cc2ccccc2C(F)(F)F)c2ccccc2CN1C1CCN(c2c(F)cccc2OC(F)(F)F)CC1` [Example 78, 3-[1-(2-Fluoro-6-trifluoromethoxy-phenyl)-piperidin-4-yl]-1-(2-trifluoromethyl-benzyl)-3,4-dihydro-1H-quinazolin-2-one] the figure was 80 nM; with `Cc1cccc(F)c1N1CCC(N2Cc3ccccc3N(Cc3ccccc3OCCN(C)C)C2=O)CC1` [Example 47, 1-[2-(2-Dimethylamino-ethoxy)-benzyl]-3-[1-(2-fluoro-6-methyl-phenyl)-piperidin-4-yl]-3,4-dihydro-1H-quinazolin-2-one], 1660 nM; with `COc1cccc(C)c1N1CC[C@@H](N2Cc3cccc(OC)c3N(Cc3ccccc3C(F)(F)F)C2=O)C1` [Example 22, 8-Methoxy-3-[(R)-1-(2-methoxy-6-methyl-phenyl)-pyrrolidin-3-yl]-1-(2-trifluoromethyl-benzyl)-3,4-dihydro-1H-quinazolin-2-one], 52 nM.
